In patent US4188378A, “Anticancer and antiviral activity of 9-β-D-arabinofuranosyl-2-fluoroadenine” (The United States of America as represented by the …, priority 1978, dated 1980):

Experiments:
[1] = background statement; cited from earlier work
[2] = tested on: adenosine deaminase; details: cited from earlier work
[3] = tested on: Leukemia L1210; experiment: Therapeutic activity against leukemia L1210 implanted i.p. in mice; type: in vivo
Source text: (§1) Inhibition of DNA polymerase is considered to be responsible for the biologic activity of AraA. The levels of F-AraATP attainable in leukemia L1210 cells in mice from the administration of 2-F-AraA are much higher than the level of AraATP atainable in these cells after administration of AraA. As a result of the maintenance of these levels of the inhibitor, F-AraATP, in them, the leukemia cells are effectively destroyed in animals. […] 2-F-AraA was also active against leukemia L1210 when administered by the oral route.
^a 10^5 L1210 ascites cells implanted i.p. on day 0.
^b Treatments reported were selected from a range of dose levels from
lethally toxic to apparently nontoxic.
more than 16% (1/6 treated mice) dying without gross evidence of
progressive leukemia (splenomegaly), except those treated orally, in whic
^c i.p. = intraperitoneal; oral = drug administered directly into
^d % ILS = % increase in life span, compared to untreated control;
excluding 60day survivors.
^e Based on median day of death in dying animals only. Figures in
parentheses based on % survivors.
2-F-AraA was given i.p. or orally on the basis of average mouse body weight. Therapeutic activity based on observed increase in median life span of treated animals over untreated controls and on estimates of the number of viable L1210 cells present at the end of treatment is summarized in Table 2.

[4] = tested on: leukemias; details: background statement; cited from earlier work
[5] = tested on: DNA polymerase; experiment: Inhibition of DNA polymerase by the triphosphate; type: biochemical; details: triphosphate compared with Ara-ATP
Source text: as §1

SMILES	antiviral activity [1]	deamination of AraA in vivo to AraH [2]	activity against leukemia L1210 ([3]; AraA under similar conditions)	leukemia cells at the end of treatment ([3]; AraA, 10^5 cells at the beginning)	therapeutic activity against L1210 leukemia ([3]; in the absence of adenosine deaminase inhibitors)	antileukemic activity [4]	inhibition of DNA polymerase [5]
Nc1ncnc2c1ncn2[C@@H]1O[C@H](CO)[C@@H](O)[C@@H]1O [AraA, 9-β-D-arabinofuranosyladenine, reference compound]	potent antiviral agent	rapid deamination	essentially devoid of activity	3×10^8 cells	no significant therapeutic activity	little potential	–
O=c1[nH]cnc2c1ncn2[C@@H]1O[C@H](CO)[C@@H](O)[C@@H]1O [AraH, 9-β-D-arabinofuranosylhypoxanthine]	some antiviral	–	–	–	–	no antileukemic activity	–
Nc1nc(F)nc2c1ncn2[C@@H]1O[C@H](COP(=O)(O)OP(=O)(O)OP(=O)(O)O)[C@@H](O)[C@@H]1O [F-AraATP]	–	–	–	–	–	–	as potent an inhibitor of DNA polymerase as Ara-ATP
